Patent publication US20240246937A1 (MERCK SHARP & DOHME LLC, priority 2021, published 2024)

Biological target: recombinant IL4I1 (Homo sapiens (Human), UniProt Q96RQ9)
Experiment: IL4I1 Enzymatic Assay (Amplex Red/HRP coupled fluorescence detection of H2O2)
Type: biochemical
Details: 240 min; recombinant IL4I1, four-hour pre-incubation with compound
Method: Interleukin 4 inducible protein 1 (IL4I1) is an L-amino oxidase that catalyzes the oxidation of aromatic residues (Phe, Trp and Tyr): L-amino acid+H2O+O2→2-oxo acid+NH3+H2O2. Equal molar of H2O2 and the corresponding alpha-ketoacid are produced when IL4I1 and substrate are added. In this assay, the hydrogen peroxide generated by IL4I1 is then detected through a coupled reaction with Amplex® Red (10-acetyl-3,7-dihydroxyphenoxazine) and horseradish peroxidase (HRP) to produce resorufin product that could be detected in the form of fluorescence signals. The assessment of the inhibitory effect of small molecules (EC50) on IL4I1 is measured by the effectiveness of the compounds to inhibit the production of H2O2.
Using this assay, the potency (EC50) of each compound was determined from a ten-point (1:3 serial dilution) titration curve using the following outlined procedure. To each well of a black flat-bottom Greiner (Cat #781076) 384 well-plate, 25 nL of compound (0.1% DMSO in final assay volume of 25 μL) was dispensed, followed by the addition of 12.5 μL of 1× assay buffer (50 mM Hepes 7.0 and 0.005% Tween20 (Sigma, Cat #P8341; low peroxide grade)) containing 2 nM of recombinant IL4I1 (R&D Systems, Cat #5684-AO-020). Plates were placed in an ambient temperature humidified chamber for a four-hour pre-incubation with compound. Subsequently, each reaction was initiated by the addition of 12.5 μL 1× assay buffer containing 2 mM of each aromatic amino acids (Phe/Tyr/Trp), 0.1 mM Amplex Red and 2 U/mL of HRP. The final reaction in each well of 25 μL consisted of 1 nM of IL4I1, 1 mM of each residues (Phe, Tyr and Trp), 0.05 mM Amplex Red and 1 U/mL of HRP. It should be noted that the concentrations of Amplex Red and HRP used here were in excess such that the conversion of H2O2 to resorufin product occurred instantaneously and was non-rate limiting. Reactions were allowed to proceed for 120 minutes followed by fluorescence readout on a Spectramax with the following set parameters: 544 nm excitation/590 nm emission, 570 nm cutoff (EnVision is an alternative reader). Dose-response curves were generated by plotting percent effect (% product conversion; Y-axis) vs. Log10 compound concentrations (X-axis). EC50 values were calculated using a non-linear regression, four-parameters sigmoidal dose-response model and are shown in Potency Table 1.

recombinant IL4I1, sequence (Q96RQ9 22-567): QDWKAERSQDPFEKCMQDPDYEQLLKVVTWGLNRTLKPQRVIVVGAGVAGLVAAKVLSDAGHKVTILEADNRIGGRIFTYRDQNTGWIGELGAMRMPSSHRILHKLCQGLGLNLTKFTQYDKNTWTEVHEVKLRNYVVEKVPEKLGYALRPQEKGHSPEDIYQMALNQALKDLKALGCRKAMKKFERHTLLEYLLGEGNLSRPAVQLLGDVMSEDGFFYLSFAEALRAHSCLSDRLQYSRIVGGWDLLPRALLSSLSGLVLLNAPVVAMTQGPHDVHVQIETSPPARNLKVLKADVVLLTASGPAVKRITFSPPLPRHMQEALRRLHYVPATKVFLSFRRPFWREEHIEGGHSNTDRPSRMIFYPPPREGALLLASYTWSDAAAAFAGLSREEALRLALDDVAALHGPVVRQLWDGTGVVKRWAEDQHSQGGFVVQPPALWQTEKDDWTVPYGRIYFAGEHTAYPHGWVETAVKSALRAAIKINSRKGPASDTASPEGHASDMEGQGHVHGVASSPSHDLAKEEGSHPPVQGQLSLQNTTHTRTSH

SMILES	EC50
O=C1C(=O)N(C2CCCC2)CCN1Cc1cc(-c2ccccc2)n[nH]1 [Example 274, 1-cyclopentyl-4-((3-phenyl-1H-pyrazol-5-yl)methyl)piperazine-2,3-dione]	34 nM
O=C1C(=O)N(C23CC(C2)C3)CCN1CC12CC(c3ccccc3)(C1)C2(F)F [Example 191, 1-(bicyclo[1.1.1]pentan-1-yl)-4-((2,2-difluoro-3-phenylbicyclo[1.1.1]pentan-1-yl)methyl)piperazine-2,3-dione]	35 nM
O=c1c(=O)n([C@H]2C[C@H]3C[C@H]3C2)ccn1Cc1ccc(-c2cccnc2)nn1 [Example 416, 1-((cis)-bicyclo[3.1.0]hexan-3-yl)-4-((6-(pyridin-3-yl)pyridazin-3-yl)methyl)-1,4-dihydropyrazine-2,3-dione]	28 nM
CC(c1ncc(-c2ccccc2)cn1)N1CCN(C2CCC2)C(=O)C1=O (single isomer, unassigned) [Example 134, (R or S)-1-cyclobutyl-4-(1-(5-phenylpyrimidin-2-yl)ethyl)piperazine-2,3-dione]	40 nM
O=c1c(=O)n([C@H]2C[C@H]3C[C@H]3C2)ccn1Cc1nnc(-c2ccccc2F)s1 [Example 45, 1-((cis)-bicyclo[3.1.0]hexan-3-yl)-4-((5-(2-fluorophenyl)-1,3,4-thiadiazol-2-yl)methyl)-1,4-dihydropyrazine-2,3-dione]	5 nM
O=C1C(=O)N(C2CCC2)CCN1Cc1cnc(-c2ccccc2)c(F)c1 [Example 123, 1-cyclobutyl-4-((5-fluoro-6-phenylpyridin-3-yl)methyl)piperazine-2,3-dione]	5 nM
O=C1C(=O)N(C2CCC2)CCN1Cc1ccc(-c2ccccc2F)nn1 [Example 1, 1-cyclobutyl-4-((6-(2-fluorophenyl)pyridazin-3-yl)methyl)piperazine-2,3-dione]	10 nM
O=C1C(=O)N(C2CCC2)CCN1Cc1ccc(-n2nccn2)nn1 [Example 398, 1-((6-(2H-1,2,3-triazol-2-yl)pyridazin-3-yl)methyl)-4-cyclobutylpiperazine-2,3-dione]	22 nM
O=c1c(=O)n(C2CCCC2)ccn1Cc1cc(-c2ccccc2)no1 [Example 358B, 1-cyclopentyl-4-((3-phenylisoxazol-5-yl)methyl)-1,4-dihydropyrazine-2,3-dione]	1 nM
CC1(n2ccn(Cc3cc(-c4ccccn4)no3)c(=O)c2=O)CC1 [Example 199, 1-(1-methylcyclopropyl)-4-((3-(pyridin-2-yl)isoxazol-5-yl)methyl)-1,4-dihydropyrazine-2,3-dione]	24 nM
O=c1c(=O)n([C@H]2C[C@H](c3ccccc3)C2)ccn1Cc1nnc(-c2ccccc2)s1 [Example 47, 1-((5-phenyl-1,3,4-thiadiazol-2-yl)methyl)-4-((trans)-3-phenylcyclobutyl)-1,4-dihydropyrazine-2,3-dione]	3 nM
O=C1C(=O)N(C2CCC2)CCN1Cc1cc(-c2cccc(F)c2)no1 [Example 158, 1-cyclobutyl-4-((3-(3-fluorophenyl)isoxazol-5-yl)methyl)piperazine-2,3-dione]	4 nM
O=C1C(=O)N([C@H]2C[C@@H](c3ccccc3)C2)CCN1Cc1ccc(-c2ccccc2)nn1 [Example 96B, cis-1-(3-phenylcyclobutyl)-4-((6-phenylpyridazin-3-yl)methyl)piperazine-2,3-dione]	8 nM
O=C1C(=O)N(C2CCCC2)CCN1Cc1cc(-c2ccccc2)no1 [Example 358A, 1-cyclopentyl-4-((3-phenylisoxazol-5-yl)methyl)piperazine-2,3-dione]	2 nM
O=c1c(=O)n(C23CC(C2)C3)ccn1Cc1cc(-c2ccccc2)on1 [Example 147, 1-(bicyclo[1.1.1]pentan-1-yl)-4-((5-phenylisoxazol-3-yl)methyl)-1,4-dihydropyrazine-2,3-dione]	2 nM
CC1(n2ccn(Cc3ccc(-n4ccnn4)nn3)c(=O)c2=O)CC1 [Example 334, 1-((6-(1H-1,2,3-triazol-1-yl)pyridazin-3-yl)methyl)-4-(1-methylcyclopropyl)-1,4-dihydropyrazine-2,3-dione]	29 nM
